# Measurements published in the supplement of paper PMC10307832.
# What was measured:
# Test in all cases: relative viability (nuclei count vs DMSO), 5 days (fraction); higher = more cells survive
# Imatinib + AZD7762 = compound: Cc1ccc(NC(=O)c2ccc(CN3CCN(C)CC3)cc2)cc1Nc1nccc(-c2cccnc2)n1 [Imatinib] + NC(=O)Nc1cc(-c2cccc(F)c2)sc1C(=O)N[C@H]1CCCNC1 [AZD7762] (partner 0.2 µM)
# In short: (§1)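 A single step with final 0.05% Triton X-100, 1% formaldehyde and 1 ug/ml Hoechst fixed the cells and stained nuclei 5 days after treatment. Lung cancer cell lines in 1536-well plates had been treated by pin tool the day after seeding with one drug alone or a fixed anchor-drug dose plus five library-drug doses (not always all listed) in √10 steps, and nuclei were counted on 4× images. Relative viability is the ratio of nuclei in treated wells to nuclei in vehicle wells, taken as the median of duplicate plates.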
# Imatinib + OSI-027 = compound: Cc1ccc(NC(=O)c2ccc(CN3CCN(C)CC3)cc2)cc1Nc1nccc(-c2cccnc2)n1 [Imatinib] + COc1cccc2cc(-c3nc([C@H]4CC[C@H](C(=O)O)CC4)n4ncnc(N)c34)[nH]c12 [OSI-027] (partner 0.5 µM)
# In short: as §1
# Imatinib + Olaparib = compound: Cc1ccc(NC(=O)c2ccc(CN3CCN(C)CC3)cc2)cc1Nc1nccc(-c2cccnc2)n1 [Imatinib] + O=C(c1cc(Cc2n[nH]c(=O)c3ccccc23)ccc1F)N1CCN(C(=O)C2CC2)CC1 [Olaparib] (partner 8 µM)
# In short: as §1
# Imatinib + Decitabine = compound: Cc1ccc(NC(=O)c2ccc(CN3CCN(C)CC3)cc2)cc1Nc1nccc(-c2cccnc2)n1 [Imatinib] + Nc1ncn([C@H]2C[C@H](O)[C@@H](CO)O2)c(=O)n1 [Decitabine] (partner 2 µM)
# In short: as §1
Cell Line,relative viability (Imatinib + AZD7762; first compound 0.02 µM),relative viability (Imatinib + AZD7762; first compound 0.06325 µM),relative viability (Imatinib + AZD7762; first compound 0.2 µM),relative viability (Imatinib + AZD7762; first compound 0.6325 µM),relative viability (Imatinib + AZD7762; first compound 2 µM),relative viability (Imatinib + OSI-027; first compound 0.02 µM),relative viability (Imatinib + OSI-027; first compound 0.06325 µM),relative viability (Imatinib + OSI-027; first compound 0.2 µM),relative viability (Imatinib + OSI-027; first compound 0.6325 µM),relative viability (Imatinib + OSI-027; first compound 2 µM),relative viability (Imatinib + Olaparib; first compound 0.02 µM),relative viability (Imatinib + Olaparib; first compound 0.06325 µM),relative viability (Imatinib + Olaparib; first compound 0.2 µM),relative viability (Imatinib + Olaparib; first compound 0.6325 µM),relative viability (Imatinib + Olaparib; first compound 2 µM),relative viability (Imatinib + Decitabine; first compound 0.02 µM),relative viability (Imatinib + Decitabine; first compound 0.06325 µM),relative viability (Imatinib + Decitabine; first compound 0.2 µM),relative viability (Imatinib + Decitabine; first compound 0.6325 µM),relative viability (Imatinib + Decitabine; first compound 2 µM)
NCI-H23,0.27,0.285,0.23,0.203,0.21,0.62,0.606,0.551,0.598,0.496,0.384,0.287,0.32,0.376,0.32,0.319,0.31,0.299,0.287,0.355
NCI-H322M,0.565,0.673,0.529,0.608,0.586,0.624,0.544,0.553,0.522,0.52,0.821,0.857,0.734,0.678,0.807,0.751,0.692,0.661,0.655,0.756
NCI-H358,0.559,–,0.489,0.574,0.521,0.861,0.382,0.843,0.635,0.855,0.733,0.699,0.613,0.549,0.556,0.205,0.168,0.214,0.207,0.202
NCI-H441,1.34,1.34,1.17,1.1,1.08,0.675,0.561,0.632,0.581,0.563,0.577,0.793,0.554,0.6,0.635,0.252,0.234,0.249,0.26,0.268
NCI-H460,0.658,0.783,0.606,0.489,0.509,0.743,1.09,0.819,0.566,0.503,0.515,0.431,0.402,0.462,0.396,0.603,0.333,0.63,0.511,0.575
NCI-H596,1.21,1.03,–,0.948,1.13,0.775,0.669,0.689,0.626,0.61,0.648,0.811,0.681,0.665,0.747,1.12,1.01,1.17,–,0.971
NCI-H647,0.708,0.519,0.383,0.383,0.381,0.621,0.693,0.704,0.626,0.562,0.803,0.67,0.792,0.588,0.495,0.454,0.432,0.421,0.366,0.37
NCI-H650,1.11,0.882,–,1.03,0.979,0.557,0.496,0.51,0.544,0.459,0.432,0.405,0.392,0.431,0.383,0.299,0.36,0.291,0.313,0.262
NCI-H727,0.651,–,0.506,0.573,0.507,0.455,0.476,0.519,0.773,0.551,0.644,–,0.696,0.712,0.664,–,–,0.904,0.84,0.808
NCI-H838,1.04,1.03,0.961,0.954,1.02,0.407,0.389,0.406,0.407,0.421,0.88,0.988,–,0.883,0.852,0.464,0.497,0.469,0.488,0.424
NCI-H1355,0.988,–,0.83,0.63,0.571,0.386,–,0.388,0.315,0.432,0.812,–,0.822,0.762,0.699,0.359,–,0.35,0.345,0.35
NCI-H1395,0.369,–,0.343,0.376,0.393,0.63,0.443,0.705,0.581,0.606,0.455,–,0.405,0.428,0.409,0.754,–,0.656,0.678,0.69
NCI-H1437,1.24,1.07,1.09,1.04,1.14,0.998,0.945,–,0.911,0.891,0.692,0.703,0.719,0.686,0.604,0.587,0.664,0.597,0.629,0.578
NCI-H1648,0.723,0.732,0.686,0.642,0.526,0.253,0.266,0.243,–,0.237,0.958,0.633,0.971,0.307,0.776,0.442,0.478,0.448,0.393,0.456
NCI-H1651,0.543,0.267,0.488,0.468,0.403,–,0.848,0.727,0.739,0.665,0.173,0.231,0.177,0.19,0.166,0.56,0.297,0.643,0.591,0.599
